Test results from patent publication US20240002398A1, “COMPLEX, AND USE THEREOF” (RIKEN, priority 2020, published 2024).

Experiments:
[1] = tested on: A549 (human lung adenocarcinoma cells); assay: Fluorescence release, cell-based assay, time-dependent; details: A549, 2 μM or 20 μM, real-time 30 minutes, FIGS. 6 and 7
Experimental: (§1) Fluorescence intensity was normalized for each cell line by the number of 10,000 cells. Results are shown in FIG. 6 (2 μM) and FIG. 7 (20 μM).

[2] = tested on: MCF10A (normal human mammary cells); assay: as above; details: 2 μM or 20 μM, real-time 30 minutes, FIGS. 6 and 7
Experimental: as §1

[3] = tested on: HeLa S3 (human cervical cancer cells); assay: as above; details: HeLa S3, 2 μM or 20 μM, real-time 30 minutes, FIGS. 6 and 7
Experimental: as §1

[4] = tested on: A549 (human lung adenocarcinoma cells); assay: Fluorescence release, cell-based assay, concentration-dependent; details: FIG. 4
Text: (§2) Fluorescence intensity was normalized for each cell line by the number of 10,000 cells.

[5] = tested on: MCF10A (normal human mammary cells); assay: as above; details: 2-20 μM, FIG. 3
Text: as §2

[6] = tested on: HeLa S3 (human cervical cancer cells); assay: as above; details: FIG. 5
Text: as §2

[7] = Fluorescence spectra in water (0.2% DMSO); assay type: physicochemical; details: 2 μM in water (0.2% DMSO), FIG. 1
Text: The results are shown in FIG. 1 (dashed line: compound 7, solid line: control compound).

[8] = Fluorescence release, HPLC analysis of mixture with glutathione; assay type: physicochemical; details: 20 μM in DMSO, GSH 1.0 eq, FIG. 8
Experimental: (§3) To a solution of coumarin-ABC (compound 7) (2×10^−5 mmol, 1.0 eq) in DMSO (1 mL, [compound 7]=20 μM) was added glutathione (GSH) (2×10^−5 mmol, 1.0 eq) or acrolein (2×10^−5 mmol, 1.0 eq). The reaction liquid was stirred and the reaction mixture was subjected to HPLC analysis at different time intervals (30 minutes, 1 hour, 2 hours, 4 hours, and 12 hours). Conditions of reversed-phase HPLC were as follows: Column, Cosmosil 5C18-AR300 (manufactured by Nacalai Tesque, Inc.) 4.6×250 mm; Mobile phase A, 0.1% TFA in H2O; Mobile phase B, 0.1% TFA in CH3CN; Gradient elution, 0-4 min at 65% B, 4-14 min at 65-95% B, 14-20 min at 95% B; Flow rate at 1 mL/min; Fluorescence detection at 360/450 nm; Amount per injection 6 μL. Results are shown in FIG. 8 (GSH) and FIG. 9 (acrolein).

[9] = Fluorescence release, HPLC analysis of mixture with acrolein; assay type: physicochemical; details: 20 μM in DMSO, acrolein 1.0 eq, FIG. 9
Experimental: as §3

A549 xenograft tumors [10] = assay: A549 tumor bearing mice xenograft model, intratumoral administration (Example 9); assay type: in vivo; details: intratumoral 10 μL, 4 times on days 0, 4, 7 and 11; FIG. 20
A549 xenograft tumors [11] = assay: A549 tumor bearing mice xenograft model, intratumoral administration (Example 6); details: 12 times in consecutive days, mitomycin C 1.8 mg/kg, MMC-ABC 3.1 mg/kg, FIGS. 13 and 15
Experimental: For all intratumoral injections and tumor measurements, mice were anesthetized with 2% isoflurane in oxygen at a 2.5-3.0 L/min flow rate.
A549 cells were obtained from stock lines kept in liquid nitrogen. These cells were cultured in Dulbeccos's modified eagle's medium (DMEM) (manufactured by FUJIFILM Wako Pure Chemical Corporation) supplemented with 10% fetal bovine serum (FBS) (manufactured by BioWest) and 1% penicillin-streptomycin (manufactured by Gibco). The cells were then incubated at 37° C. in a 5% CO2 humidified atmosphere.
A549 xenograft tumors were established in 6-week-old female nude mice BALB/cAJc1-nu/nu by subcutaneous injection of a suspension of 2.5-6.0×10^6 cells in 100 μL of cold 50% matrigel in unnourished DMEM into the right and left shoulders, and tumor growth was monitored. The mice were kept in controlled temperature, salinity, and aeration room with sufficient food and water for 12 hours day and 12 hours night. […]
The administrations were repeated 12 times in consecutive days with the same doses. The tumor volume and body weight of the mice were recorded every day based on an equation: V=W^2×L/2, where W and L represented the minor length and major length of the tumor, respectively. When the tumor reached 2,000 mm^3, the mice were sacrificed, and the survival rates were calculated using the Kaplan Meier method. […]

MCF10A = assay: ATP assay (cytotoxicity assay), DOX-ABC and DOX; details: 0.05-50 μM, 48 hours at 37° C., FIG. 16
Experimental: (§4) Three cell lines (MCF10A, A549, and HeLa S3) were seeded on a 96-well plate (2×10^4 cells/well) and left to attach for 24 hours at 37° C. Each of the cells was then used for two different conditions as follows:
(§5) (Condition 1) The cells were treated with 100 μL of DOX-ABC (compound 7) solutions [0.05 μM, 0.1 μM, 0.5 μM, 1 μM, 5 μM, 10 μM, 50 μM in the culture medium (1% DMSO)] and incubated for 48 hours at 37° C. under 5% of CO2.
(§6) (Condition 2) Incubation was carried out in a manner similar to that of condition 1 with use of doxorubicin (DOX) solutions.
(§7) After the incubation, 100 μL of ATP lite 1 step reagent was added to the cells, and the fluorescence intensity was measured using a spectrofluorometer (SpectraMax iD3, manufactured by Molecular Devices).

A549 xenograft tumors [12] = assay: A549 tumor bearing mice xenograft model, intratumoral administration (Example 8); details: for tumor growth (tumor size): intratumoral 10 μL, 4 times on days 0, 4, 7 and 11, FIGS. 17 and 18; for survival rate: intratumoral, at and after the fourth administration, Kaplan Meier, FIG. 19
Experimental: The prepared mice were randomized, divided into three groups, and treated with the prodrugs and controls. Group 1 was intratumorally injected with 10 μL of compound 9 produced in Production Example 5 as a control (n=10). Group 2 was intratumorally injected with 10 μL of doxorubicin (n=10).
Administrations were conducted 4 times in total on days 0, 4, 7, and 11 with the same doses. The tumor volumes of the mice were recorded every day based on an equation: V=W^2×L/2, where W and L represented the minor length and major length of the tumor, respectively. When the tumor reached 2,000 mm^3, the mice were sacrificed, and the survival rates were calculated using the Kaplan Meier method.

A549 = assay: ATP assay (cytotoxicity assay), DOX-ABC and DOX; details: A549, 0.05-50 μM, 48 hours at 37° C., FIG. 16
Experimental: as §4, §5, §6, §7

HeLa S3 = assay: ATP assay (cytotoxicity assay), DOX-ABC and DOX; details: HeLa S3, 0.05-50 μM, 48 hours at 37° C., FIG. 16
Experimental: as §4, §5, §6, §7

With `Cc1cc(=O)oc2cc(NC(=O)OCc3cc(C(C)C)c(N=[N+]=[N-])c(C(C)C)c3)ccc12` [coumarin-ABC] the release of fluorescence [1] was “notably observed depending on the time”, the release of fluorescence [2] was “only slightly observed” and the release of fluorescence [3] was “notably observed depending on the time”. For the same compound, the release of fluorescence ([4]; A549, 2-20 μM, 60 minutes at room temperature, no NAc-Cys (conditions 1 and 3)) was “notably observed”, the release of fluorescence ([4]; A549, pre-treated with 1 mM N-acetyl cysteine 2 hours (condition 2), 2-20 μM, 60 minutes) was “low” and the release of fluorescence ([5]; 60 minutes at room temperature, no NAc-Cys (conditions 1 and 3)) was “hardly observed”. For the same compound, the release of fluorescence ([5]; pre-treated with 1 mM N-acetyl cysteine 2 hours (condition 2), 60 minutes) was “hardly observed”, the release of fluorescence ([6]; HeLa S3, 2-20 μM, 60 minutes at room temperature, no NAc-Cys (conditions 1 and 3)) was “notably observed” and the release of fluorescence ([6]; HeLa S3, pre-treated with 1 mM N-acetyl cysteine 2 hours (condition 2), 2-20 μM, 60 minutes) was “low”. The fluorescence emission [7] was “did not emit fluorescence”, the “reaction with glutathione (GSH)” value [8] was “did not react with each other” and the “state of the compound in the mixture with GSH” value ([8]; left for 12 hours) was “did not change”. For the same compound, the reaction with acrolein [9] was “rapidly reacted with each other”.

With `COc1ccc(CC(NC(=O)OCc2cc(C(C)C)c(N=[N+]=[N-])c(C(C)C)c2)C(=O)NC2C(O)[C@H](n3cnc4c(N(C)C)ncnc43)O[C@@H]2CO)cc1` (some centres unmarked) [PUR-ABC] the tumor growth (A549 xenograft tumors [10]) was “effective with respect to the tumor growth”.

For `CO[C@@]12[C@H](COC(N)=O)C3=C(C(=O)C(C)=C(N)C3=O)N1C[C@@H]1N[C@@H]12` [mitomycin C], the side effect (A549 xenograft tumors [11]) was “inflammation on the whole body”.

In the case of `COc1cccc2c1C(=O)c1c(O)c3c(c(O)c1C2=O)C[C@@](O)(C(=O)CO)C[C@@H]3O[C@H]1C[C@H](N)[C@H](O)[C@H](C)O1` [doxorubicin, reference compound], the “cytotoxicity (cell viability)” value (MCF10A) is reported as “nonspecifically exhibited cytotoxicity toward normal cells and cancer cells”, the “tumor growth (tumor size)” value (A549 xenograft tumors [12]) is reported as “effective with respect to the tumor growth” and the survival rate (A549 xenograft tumors [12]) is reported as “suddenly decreased”. The “cytotoxicity (cell viability)” value (A549) was “nonspecifically exhibited cytotoxicity toward normal cells and cancer cells” and the “cytotoxicity (cell viability)” value (HeLa S3) was “nonspecifically exhibited cytotoxicity toward normal cells and cancer cells”.

In the case of `COc1cccc2c1C(=O)c1c(O)c3c(c(O)c1C2=O)C[C@@](O)(C(=O)CO)C[C@@H]3O[C@H]1C[C@H](NC(=O)OCc2cc(C(C)C)c(N=[N+]=[N-])c(C(C)C)c2)[C@H](O)[C@H](C)O1` [DOX-ABC], the “cytotoxicity (cell viability)” value (MCF10A) is reported as “released free DOX specifically in cancer cells”, the “tumor growth (tumor size)” value (A549 xenograft tumors [12]) is reported as “effective with respect to the tumor growth” and the survival rate (A549 xenograft tumors [12]) is reported as 100%. The “cytotoxicity (cell viability)” value (A549) was “released free DOX specifically in cancer cells” and the “cytotoxicity (cell viability)” value (HeLa S3) was “released free DOX specifically in cancer cells”.

In the case of `Cc1cc(C(C)C)c(N=[N+]=[N-])c(C(C)C)c1` [compound 9, 2-azido-1,3-diisopropyl-5-methylbenzene], the “tumor growth (tumor size)” value (A549 xenograft tumors [12]) is reported as “larger tumor size”.
